Test results published in paper PMC7467243, “Response to and recovery from treatment in human liver-mimetic clinostat spheroids: a model for assessing repeated-dose drug toxicity” (Toxicology Research, 2020).

What was measured:
[1] = cited from earlier work; for Biological half-life (h): in vivo
[2] = cited from earlier work
HepG2–C3A spheroids = system: HepG2–C3A spheroids
Method: Three hundred 21-day old spheroids (corresponding to ~25 million cells or 3.5 mg protein) were gently pipetted (using a cut-tip) into each 10 ml bioreactor before treatment to provide ample material for analysis. To initiate drug treatment, the bioreactor rotation was stopped for 30 s to allow the spheroids to settle to the bottom of the bioreactor. […] Each narrow range experiment was carried out in duplicate and ATP was measured in technical triplicates for each sample. […] Data were normalized to the vehicle-treated control. Error bars in the figures show standard deviation.
Cell viability was measured based on their ability to produce ATP [37]. […] The cells were then lysed with 100 μl of lysis buffer (CellTiter-Glo luminescent cell viability assay, Promega, Fitchburg, WI, Cat. no. G7571) and shaken in the dark for 20 min. Before the luminescence was measured in a FluoStar OPTIMA (BMG Labtech, Ortenberg, Germany) using the following parameters: one kinetic window, 10 measurement cycles with 0.3 s of measurement interval time, 2-s delay per measurement, additional 0.5-s delay per position change (repeated twice for each measured plate). Replicates were performed as described under the ‘Drug treatment’ Section. The data were normalized with reference to a standard curve for ATP and to the untreated control.

[3] = parameters: method as in PMID 22407198, PMID 12889529; conditions: therapeutic dose 4 g/day; cited from earlier work
[4] = cited from earlier work; remark: listed apart in the source
HepG2/C3A spheroids = system: HepG2/C3A spheroids; parameters: method as in earlier work; conditions: cited from earlier work

For `O=C(O)Cc1ccccc1Nc1c(Cl)cccc1Cl` [Diclofenac], the “Biological half-life (h)” value [1] is given as 1–2 h and the “effectiveness as an anti-inflammatory agent compared with other non-steroidal anti-inflammatory drugs” value [2] is given as 3-1000 ×.
For `CN(C)C(=N)N=C(N)N` [Metformin], the “reduction in ATP production” value (HepG2–C3A spheroids; 5 mg/mg (highest dose), glucose medium) was 70%.
For `CC(=O)Nc1ccc(O)cc1` [Paracetamol], the chronically lethal dose (HepG2–C3A spheroids; four treatments at 48-h intervals killed the spheroids, relative to 20 mg paracetamol per mg protein) is listed as “Half of this dose”, the acutely lethal dose (HepG2–C3A spheroids; glucose medium) is listed as 20 mg paracetamol per mg protein and the “Biological half-life (h)” value [1] is listed as 2–4 h. The blood concentration [3] was 10 to 25 µg/mL and the “Toxic dose, μg/ml in blood” value [4] was 100 to 150 µg/mL.
In the case of `[H]/N=C(/N)N/C(=N/[H])NCCc1ccccc1` [Phenformin], the half-life [1] is listed as 7 h and the “Biological half-life (h)” value [1] is listed as 4–13 h.
In the case of `CCCC(CCC)C(=O)O` [VPA, valproic acid], the “Biological half-life (h)” value [1] is given as 10–20 h, the acute toxicity threshold (HepG2/C3A spheroids) is given as 20 mg VPA per mg protein and the chronic toxicity threshold (HepG2/C3A spheroids) is given as 4 mg VPA per mg protein. The “Toxic dose, μg/ml in blood” value [4] was 40 to 100 µg/mL.
